Reference: patent publication US8852654B2 (priority 2011, dated 2014)

Experiments:
[1] = Double blind randomized clinical assay in women with low urinary tract infection treated with nitrofurantoin; assay type: in vivo, human
Description: Patients were ambulatory in the Urology Polyclinical of the Clinical Hospital of the University of Chile (HCUCH). Those that fulfilled the inclusion and exclusion criteria signed an informed consent to participate in the study. Patients were distributed randomly in the two following groups:
During the treatment, under medical and nursery checkup registers of adverse reactions, hemogram, biochemical profile, urocultive and determination of plasma antioxidant capacity were made.

[2] = cited from earlier work

SMILES: O=C1CN(/N=C/c2ccc([N+](=O)[O-])o2)C(=O)N1 [nitrofurantoin, N-(5-nitro-2-furfuriliden)-1-aminohidantoin]
- Biochemical profile values compared with reference values ([1]; human, in vivo): not statistically different from reference values
- Hemogram values compared with reference values ([1]; human, in vivo): not statistically different from reference values
- Patients passed away because of the gastrointestinal adverse reactions ([1]; received only nitrofurantoin, 100 mg every 12 hours, 15 patients per group): 2 patients
- Absorption ([2]; after oral administration): almost completely absorbed
- Maximum plasma concentrations ([2]; oral): about 1 mg/L
- Plasma half-life ([2]; oral, prolonged in renal insufficiency): 20 to 30 min
